This note sets out measurements from publication PMC6874683, “Pyrrothiogatain acts as an inhibitor of GATA family proteins and inhibits Th2 cell differentiation in vitro” (Scientific Reports, 2019).

For the test, the system named is Th2 cells. Nature of the test: Cytokine production of in vitro differentiated Th2 cells restimulated for 16 h (ELISA). In kind it is cell-based, mouse. The note with it: restimulated 16 h, 0 to 100 µM. How it is done:
To clarify the effects of pyrrothiogatain on Th2 cell differentiation, naive CD4 T cells were purified and cultured under Th2 conditions in the presence or absence of pyrrothiogatain for 5 days, and then the Th2 cell differentiation status was determined by intracellular staining. The generation of IL-4-, IL-5-, and IL-13-producing Th2 cells was repressed by treatment with pyrrothiogatain (Fig. 5A). Decreased production and mRNA expression of IL-4, IL-5 and IL-13 were confirmed using ELISA and RT-qPCR, respectively (Fig. 5B,C). […] Next, we treated in vitro differentiated Th2 cells with pyrrothiogatain to test the effect of pyrrothiogatain on Th2 cytokine production. Total CD4^+ cells were cultured under Th2 conditions for 5 days, and then the Th2 cells were restimulated in the presence or absence of pyrrothiogatain for 16 h. […]
Figure 5 Pyrrothiogatain inhibits Th2 cell differentiation and production of Th2 cytokines. […] (B) Cytokine production induced in the pyrrothiogatain treated Th2 cells shown in panel (A) was determined by ELISA. (C) Quantitative RT-PCR analysis of the pyrrothiogatain-treated Th2 cells shown in panel (A). […] The amounts of IL-4, IL-5 and IL-13 in the culture supernatants were determined by ELSA. In (B), (C) and (E), all data are expressed as individual points of three independent experiments with error bars indicating standard deviation. […]
For orientation: In an ELISA, binding on a coated surface is turned into a signal by an enzyme label.

`Cc1ccc(C)n1-c1ccsc1C(=O)O` [Pyrrothiogatain, 3-(2,5-dimethyl-1H-pyrrol-1-yl)thiophene-2-carboxylic acid]: the “IL-4, IL-5 and IL-13 production of restimulated Th2 cells” value is reported as “decreased”.
